Laboratory results from ChEMBL document CHEMBL1649134, “Occurrence of efflux mechanism and cephalosporinase variant in a population of Enterobacter aerogenes and Klebsiella pneumoniae isolates producing extended-spectrum beta-lactamases” (2009).
In brackets after ≈: the same amount, converted by molar mass.

How the values were obtained:
Format in all cases: functional
[1] = test system: Klebsiella aerogenes; test: Antimicrobial activity against multidrug resistant Enterobacter aerogenes isolate 6 by broth dilution method
[2] = test system: Klebsiella pneumoniae; test: Antimicrobial activity against multidrug resistant Klebsiella pneumoniae isolate 1 by broth dilution method
[3] = test system: Klebsiella aerogenes; test: Antimicrobial activity against multidrug resistant Enterobacter aerogenes isolate 10 by broth dilution method
[4] = test system: Klebsiella pneumoniae; test: Antimicrobial activity against multidrug resistant Klebsiella pneumoniae isolate 4 by broth dilution method in presence of 26.3 mg/L efflux pump inhibitor phenylalanine-arginine-beta-naphthylamide
[5] = test system: Klebsiella aerogenes; test: Antimicrobial activity against multidrug resistant Enterobacter aerogenes isolate 23 by broth dilution method
[6] = test system: Klebsiella aerogenes; test: Antimicrobial activity against multidrug resistant Enterobacter aerogenes isolate 17 by broth dilution method
[7] = test system: Klebsiella pneumoniae; test: Antimicrobial activity against multidrug resistant Klebsiella pneumoniae isolate 11 by broth dilution method in presence of 26.3 mg/L efflux pump inhibitor phenylalanine-arginine-beta-naphthylamide
[8] = test system: Klebsiella aerogenes; test: Antimicrobial activity against multidrug resistant Enterobacter aerogenes isolate 1 by broth dilution method
[9] = test system: Klebsiella aerogenes; test: Antimicrobial activity against multidrug resistant Enterobacter aerogenes isolate 11 by broth dilution method in presence of 26.3 mg/L efflux pump inhibitor phenylalanine-arginine-beta-naphthylamide
[10] = test system: Klebsiella pneumoniae; test: Antimicrobial activity against multidrug resistant Klebsiella pneumoniae isolate 14 by broth dilution method
[11] = test system: Klebsiella aerogenes; test: Antimicrobial activity against multidrug resistant Enterobacter aerogenes isolate 6 by broth dilution method in presence of 26.3 mg/L efflux pump inhibitor phenylalanine-arginine-beta-naphthylamide
[12] = test system: Klebsiella pneumoniae; test: Antimicrobial activity against multidrug resistant Klebsiella pneumoniae ATCC 11296 by broth dilution method in presence of 26.3 mg/L efflux pump inhibitor phenylalanine-arginine-beta-naphthylamide
[13] = test system: Klebsiella aerogenes; test: Antimicrobial activity against multidrug resistant Enterobacter aerogenes isolate 22 by broth dilution method
[14] = test system: Klebsiella aerogenes; test: Antimicrobial activity against multidrug resistant Enterobacter aerogenes isolate 22 by broth dilution method in presence of 26.3 mg/L efflux pump inhibitor phenylalanine-arginine-beta-naphthylamide
[15] = test system: Klebsiella aerogenes; test: Antimicrobial activity against multidrug resistant Enterobacter aerogenes isolate 24 by broth dilution method
[16] = test system: Klebsiella pneumoniae; test: Antimicrobial activity against multidrug resistant Klebsiella pneumoniae isolate 15 by broth dilution method
[17] = test system: Klebsiella aerogenes; test: Antimicrobial activity against multidrug resistant Enterobacter aerogenes isolate 2 by broth dilution method
[18] = test system: Klebsiella aerogenes; test: Antimicrobial activity against multidrug resistant Enterobacter aerogenes isolate 27 by broth dilution method in presence of 26.3 mg/L efflux pump inhibitor phenylalanine-arginine-beta-naphthylamide
[19] = test system: Klebsiella aerogenes; test: Antimicrobial activity against multidrug resistant Enterobacter aerogenes isolate 12 by broth dilution method in presence of 26.3 mg/L efflux pump inhibitor phenylalanine-arginine-beta-naphthylamide
[20] = test system: Klebsiella pneumoniae; test: Antimicrobial activity against multidrug resistant Klebsiella pneumoniae isolate 9 by broth dilution method
[21] = test system: Klebsiella pneumoniae; test: Antimicrobial activity against multidrug resistant Klebsiella pneumoniae isolate 9 by broth dilution method in presence of 26.3 mg/L efflux pump inhibitor phenylalanine-arginine-beta-naphthylamide
[22] = test system: Klebsiella pneumoniae; test: Antimicrobial activity against multidrug resistant Klebsiella pneumoniae isolate 16 by broth dilution method
[23] = test system: Klebsiella aerogenes; test: Antimicrobial activity against multidrug resistant Enterobacter aerogenes isolate 20 by broth dilution method in presence of 26.3 mg/L efflux pump inhibitor phenylalanine-arginine-beta-naphthylamide
[24] = test system: Klebsiella aerogenes; test: Antimicrobial activity against multidrug resistant Enterobacter aerogenes isolate 8 by broth dilution method in presence of 26.3 mg/L efflux pump inhibitor phenylalanine-arginine-beta-naphthylamide
[25] = test system: Klebsiella pneumoniae; test: Antimicrobial activity against multidrug resistant Klebsiella pneumoniae isolate 7 by broth dilution method in presence of 26.3 mg/L efflux pump inhibitor phenylalanine-arginine-beta-naphthylamide
[26] = test system: Klebsiella pneumoniae; test: Antimicrobial activity against multidrug resistant Klebsiella pneumoniae isolate 10 by broth dilution method in presence of 26.3 mg/L efflux pump inhibitor phenylalanine-arginine-beta-naphthylamide
[27] = test system: Klebsiella pneumoniae; test: Antimicrobial activity against multidrug resistant Klebsiella pneumoniae isolate 2 by broth dilution method in presence of 26.3 mg/L efflux pump inhibitor phenylalanine-arginine-beta-naphthylamide
[28] = test system: Klebsiella aerogenes; test: Antimicrobial activity against multidrug resistant Enterobacter aerogenes isolate 4 by broth dilution method in presence of 26.3 mg/L efflux pump inhibitor phenylalanine-arginine-beta-naphthylamide
[29] = test system: Klebsiella pneumoniae; test: Antimicrobial activity against multidrug resistant Klebsiella pneumoniae isolate 3 by broth dilution method
[30] = test system: Klebsiella aerogenes; test: Antimicrobial activity against multidrug resistant Enterobacter aerogenes isolate 27 by broth dilution method
[31] = test system: Klebsiella aerogenes; test: Antimicrobial activity against multidrug resistant Enterobacter aerogenes isolate 11 by broth dilution method
[32] = test system: Klebsiella aerogenes; test: Antimicrobial activity against multidrug resistant Enterobacter aerogenes isolate 20 by broth dilution method
[33] = test system: Klebsiella aerogenes; test: Antimicrobial activity against multidrug resistant Enterobacter aerogenes isolate 17 by broth dilution method in presence of 26.3 mg/L efflux pump inhibitor phenylalanine-arginine-beta-naphthylamide
[34] = test system: Klebsiella aerogenes; test: Antimicrobial activity against multidrug resistant Enterobacter aerogenes isolate 7 by broth dilution method in presence of 26.3 mg/L efflux pump inhibitor phenylalanine-arginine-beta-naphthylamide
[35] = test system: Klebsiella aerogenes; test: Antimicrobial activity against multidrug resistant Enterobacter aerogenes isolate 21 by broth dilution method in presence of 26.3 mg/L efflux pump inhibitor phenylalanine-arginine-beta-naphthylamide
[36] = test system: Klebsiella aerogenes; test: Antimicrobial activity against multidrug resistant Enterobacter aerogenes isolate 24 by broth dilution method in presence of 26.3 mg/L efflux pump inhibitor phenylalanine-arginine-beta-naphthylamide
[37] = test system: Klebsiella aerogenes; test: Antimicrobial activity against multidrug resistant Enterobacter aerogenes isolate 19 by broth dilution method in presence of 26.3 mg/L efflux pump inhibitor phenylalanine-arginine-beta-naphthylamide
[38] = test system: Klebsiella pneumoniae; test: Antimicrobial activity against multidrug resistant Klebsiella pneumoniae isolate 7 by broth dilution method
[39] = test system: Klebsiella aerogenes; test: Antimicrobial activity against multidrug resistant Enterobacter aerogenes isolate 19 by broth dilution method
[40] = test system: Klebsiella aerogenes; test: Antimicrobial activity against multidrug resistant Enterobacter aerogenes isolate 8 by broth dilution method
[41] = test system: Klebsiella pneumoniae; test: Antimicrobial activity against multidrug resistant Klebsiella pneumoniae isolate 6 by broth dilution method in presence of 26.3 mg/L efflux pump inhibitor phenylalanine-arginine-beta-naphthylamide
[42] = test system: Klebsiella aerogenes; test: Antimicrobial activity against multidrug resistant Enterobacter aerogenes isolate 13 by broth dilution method
[43] = test system: Klebsiella pneumoniae; test: Antimicrobial activity against multidrug resistant Klebsiella pneumoniae isolate 2 by broth dilution method
[44] = test system: Klebsiella pneumoniae; test: Antimicrobial activity against multidrug resistant Klebsiella pneumoniae isolate 13 by broth dilution method
[45] = test system: Klebsiella pneumoniae; test: Antimicrobial activity against multidrug resistant Klebsiella pneumoniae isolate 12 by broth dilution method in presence of 26.3 mg/L efflux pump inhibitor phenylalanine-arginine-beta-naphthylamide
[46] = test system: Klebsiella aerogenes; test: Antimicrobial activity against multidrug resistant Enterobacter aerogenes isolate 4 by broth dilution method
[47] = test system: Klebsiella pneumoniae; test: Antimicrobial activity against multidrug resistant Klebsiella pneumoniae isolate 13 by broth dilution method in presence of 26.3 mg/L efflux pump inhibitor phenylalanine-arginine-beta-naphthylamide
[48] = test system: Klebsiella pneumoniae; test: Antimicrobial activity against multidrug resistant Klebsiella pneumoniae isolate 15 by broth dilution method in presence of 26.3 mg/L efflux pump inhibitor phenylalanine-arginine-beta-naphthylamide
[49] = test system: Klebsiella pneumoniae; test: Antimicrobial activity against multidrug resistant Klebsiella pneumoniae ATCC 11296 by broth dilution method
[50] = test system: Klebsiella pneumoniae; test: Antimicrobial activity against multidrug resistant Klebsiella pneumoniae isolate 8 by broth dilution method

C[C@@H]1CN(c2c(F)c(N)c3c(=O)c(C(=O)O)cn(C4CC4)c3c2F)C[C@H](C)N1 [SPARFLOXACIN]
MIC [1]: 0.125 µg/mL (≈ 0.319 µM) | MIC [2]: 0.25 µg/mL (≈ 0.637 µM) | MIC [3]: 256 µg/mL (≈ 652 µM) | MIC [4]: 2 µg/mL | MIC [5]: 128 µg/mL (≈ 326 µM) | MIC [6]: 256 µg/mL (≈ 652 µM) | MIC [7]: 2 µg/mL | MIC [8]: 256 µg/mL (≈ 652 µM) | MIC [9]: 4 µg/mL | MIC [10]: 2 µg/mL (≈ 5.1 µM) | MIC [11]: ≤ 0.06 µg/mL | MIC [12]: ≤ 0.06 µg/mL | MIC [13]: 256 µg/mL (≈ 652 µM) | MIC [14]: 8 µg/mL | MIC [15]: 256 µg/mL (≈ 652 µM) | MIC [16]: 32 µg/mL (≈ 81.5 µM) | MIC [17]: 128 µg/mL (≈ 326 µM) | MIC [18]: 8 µg/mL | MIC [19]: 8 µg/mL | MIC [20]: ≤ 0.06 µg/mL | MIC [21]: ≤ 0.06 µg/mL | MIC [22]: 0.125 µg/mL (≈ 0.319 µM) | MIC [23]: 16 µg/mL | MIC [24]: 4 µg/mL | MIC [25]: ≤ 0.06 µg/mL | MIC [26]: 2 µg/mL | MIC [27]: ≤ 0.06 µg/mL | MIC [28]: 8 µg/mL | MIC [29]: 8 µg/mL (≈ 20.4 µM) | MIC [30]: 256 µg/mL (≈ 652 µM) | MIC [31]: 128 µg/mL (≈ 326 µM) | MIC [32]: 256 µg/mL (≈ 652 µM) | MIC [33]: 16 µg/mL | MIC [34]: 4 µg/mL | MIC [35]: 32 µg/mL | MIC [36]: 16 µg/mL | MIC [37]: 16 µg/mL | MIC [38]: 0.25 µg/mL (≈ 0.637 µM) | MIC [39]: 128 µg/mL (≈ 326 µM) | MIC [40]: 64 µg/mL (≈ 163 µM) | MIC [41]: ≤ 0.06 µg/mL | MIC [42]: 256 µg/mL (≈ 652 µM) | MIC [43]: 2 µg/mL (≈ 5.1 µM) | MIC [44]: 2.1 µg/mL (≈ 5.35 µM) | MIC [45]: ≤ 0.06 µg/mL | MIC [46]: 128 µg/mL (≈ 326 µM) | MIC [47]: 0.5 µg/mL | MIC [48]: 8 µg/mL | MIC [49]: ≤ 0.06 µg/mL | MIC [50]: 0.125 µg/mL (≈ 0.319 µM)

CN(C)[C@@H]1C(O)=C(C(N)=O)C(=O)[C@@]2(O)C(O)=C3C(=O)c4c(O)cccc4[C@@](C)(O)[C@H]3C[C@@H]12 [TETRACYCLINE]
MIC [1]: 4 µg/mL (≈ 9 µM) | MIC [2]: 8 µg/mL (≈ 18 µM) | MIC [3]: 128 µg/mL (≈ 288 µM) | MIC [4]: 256 µg/mL | MIC [5]: 64 µg/mL (≈ 144 µM) | MIC [6]: 64 µg/mL (≈ 144 µM) | MIC [7]: 4 µg/mL | MIC [8]: 128 µg/mL (≈ 288 µM) | MIC [9]: 8 µg/mL | MIC [10]: 2 µg/mL (≈ 4.5 µM) | MIC [11]: 8 µg/mL | MIC [12]: 1 µg/mL | MIC [13]: 128 µg/mL (≈ 288 µM) | MIC [14]: 4 µg/mL | MIC [15]: 64 µg/mL (≈ 144 µM) | MIC [16]: 2 µg/mL (≈ 4.5 µM) | MIC [17]: 64 µg/mL (≈ 144 µM) | MIC [18]: 8 µg/mL | MIC [19]: 16 µg/mL | MIC [20]: 8 µg/mL (≈ 18 µM) | MIC [21]: 128 µg/mL | MIC [22]: 4 µg/mL (≈ 9 µM) | MIC [23]: 4 µg/mL | MIC [24]: 2 µg/mL | MIC [25]: 128 µg/mL | MIC [26]: 256 µg/mL | MIC [27]: 2 µg/mL | MIC [28]: 8 µg/mL | MIC [29]: 4 µg/mL (≈ 9 µM) | MIC [30]: 128 µg/mL (≈ 288 µM) | MIC [31]: 64 µg/mL (≈ 144 µM) | MIC [32]: 64 µg/mL (≈ 144 µM) | MIC [33]: 8 µg/mL | MIC [34]: 16 µg/mL | MIC [35]: 8 µg/mL | MIC [36]: 8 µg/mL | MIC [37]: 8 µg/mL | MIC [38]: 2 µg/mL (≈ 4.5 µM) | MIC [39]: 64 µg/mL (≈ 144 µM) | MIC [40]: 64 µg/mL (≈ 144 µM) | MIC [41]: 256 µg/mL | MIC [42]: 64 µg/mL (≈ 144 µM) | MIC [43]: 64 µg/mL (≈ 144 µM) | MIC [44]: 4 µg/mL (≈ 9 µM) | MIC [45]: 256 µg/mL | MIC [46]: 128 µg/mL (≈ 288 µM) | MIC [47]: 128 µg/mL | MIC [48]: 128 µg/mL | MIC [49]: 2 µg/mL (≈ 4.5 µM) | MIC [50]: 2 µg/mL (≈ 4.5 µM)
